# Measured values as given in patent US9775902B2, “Compounds and methods for treatment of stroke” (FIBROGEN, INC, priority 2006, dated 2017).
# Where two headings read alike, the source gives them in different places.
# Experiments:
# erythropoietin = assay: Plasma EPO in mice after intravenous injection; type: in vivo, Swiss Webster mice; details: mouse plasma, 20 mg/kg i.v., four hours after injection; for fold induction at 20 mg/kg: iv, 4 h, read-out: EPO Fold Increase; for EPO: mouse EPO ELISA kit (**)
# Method in brief: (§1)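 Male Swiss Webster mice (29-34 g) received 20 mg/kg compound or vehicle by tail-vein injection in 5% dextrose with equimolar NaOH or meglumine. Plasma was collected 4 h later, and EPO and VEGF were measured by ELISA.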
# [1] = tested on: C57BL/6 mice, permanent occlusion of the MCA; assay: Permanent middle cerebral artery occlusion (pMCAO) in C57BL/6 mice: infarct volume and edema; type: in vivo; details: for Percent Reduction in Edema / inhibition in vivo at up to 20 mg/kg: C57BL/6 mice pMCAO, 20-60 mg/kg i.v., compound given 0 hr; for inhibition in vivo at up to 20 mg/kg / inhibition in vivo at 60 mg/kg: Mus musculus, iv, read-out: Percent Reduction in Infarct Volume; for inhibition in vivo at up to 20 mg/kg: 24 h, 24 hours after MCA occlusion; for inhibition in vivo at 60 mg/kg: C57BL/6 pMCAO
# Method in brief: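 Male mice (25-35 g) under avertin anaesthesia had the distal MCA coagulated through a craniotomy; compound given as single i.v. bolus (20-60 mg/kg, 6 ml/kg in 5% dextrose with equimolar meglumine or NaOH) before or up to 8 h after occlusion.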
# VEGF = assay: Plasma VEGF in mice after intravenous injection; type: in vivo, Swiss Webster mice; details: mouse plasma, 20 mg/kg i.v., four hours after injection; for fold induction at 20 mg/kg: iv, 4 h, read-out: VEGF Fold Increase
# Method in brief: as §1
# erythropoietin (EPO) = assay: EPO expression in Hep3B cells (QUANTIKINE immunoassay of conditioned media); type: cell-based, Human; details: for Fold Increase Over Control: EPO, vs 1% DMSO control; for EPO: conditioned media after overnight incubation with compound
# Method in brief: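 Confluent Hep3B cells were switched to OPTI-MEM for about 24 h (20% O2, 5% CO2, 37 °C), then treated overnight with compound or 1% DMSO vehicle. EPO secreted into the conditioned medium was measured by QUANTIKINE immunoassay.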
compound,measurement,setting,value
"Cc1cccc(C)c1Oc1ccc2c(C#N)nc(C(=O)NCC(=O)O)c(O)c2c1 [Compound AL, {[1-Cyano-6-(2,6-dimethyl-phenoxy)-4-hydroxy-isoquinoline-3-carbonyl]-amino}-acetic acid]",fold induction at 20 mg/kg,erythropoietin,188
same,EPO,erythropoietin,22514 pg/mL
same,Percent Reduction in Edema,[1],73%
same,inhibition in vivo at up to 20 mg/kg,[1],43%
same,fold induction at 20 mg/kg,VEGF,2.06
same,VEGF,VEGF,130 pg/mL
same,Fold Increase Over Control,erythropoietin (EPO),13.9
same,EPO,erythropoietin (EPO),74.8 mIU/ml
"N#Cc1nc(C(=O)NCC(=O)O)c(O)c2c(Oc3ccc(F)cc3)cccc12 [Compound AS, {[1-Cyano-5-(4-fluoro-phenoxy)-4-hydroxy-isoquinoline-3-carbonyl]-amino}-acetic acid]",fold induction at 20 mg/kg,erythropoietin,102
same,EPO,erythropoietin,49305 pg/mL
same,Percent Reduction in Edema,[1],54%
same,inhibition in vivo at up to 20 mg/kg,[1],50%
same,fold induction at 20 mg/kg,VEGF,0.57
same,VEGF,VEGF,20 pg/mL
same,Fold Increase Over Control,erythropoietin (EPO),10.7
same,EPO,erythropoietin (EPO),40.5 mIU/ml
"COc1ccc(Oc2ccc3c(O)c(C(=O)NCC(=O)O)ncc3c2)cc1 [Compound F, {[4-Hydroxy-7-(4-methoxy-phenoxy)-isoquinoline-3-carbonyl]-amino}-acetic acid]",fold induction at 20 mg/kg,erythropoietin,254
same,EPO,erythropoietin,2283 pg/mL
same,Percent Reduction in Edema,[1],47%
same,inhibition in vivo at 60 mg/kg,"[1]; 0 h, 60 mg/kg single i.v. bolus (Meglumine vehicle), 0 hr after MCA occlusion",43%
same,inhibition in vivo at 60 mg/kg,"[1]; 0 h, 60 mg/kg single i.v. bolus (NaOH vehicle), 0 hr after MCA occlusion",50%
same,inhibition in vivo at 60 mg/kg,"[1]; 1 h, 60 mg/kg single i.v. bolus (NaOH vehicle), 1 hr after MCA occlusion",62%
same,inhibition in vivo at 60 mg/kg,"[1]; 3 h, 60 mg/kg single i.v. bolus (NaOH vehicle), 3 hr after MCA occlusion",53%
same,inhibition in vivo at 60 mg/kg,"[1]; 4 h, 60 mg/kg single i.v. bolus (Meglumine vehicle), 4 hr after MCA occlusion",36%
same,inhibition in vivo at 60 mg/kg,"[1]; 5 h, 60 mg/kg single i.v. bolus (NaOH vehicle), 5 hr after MCA occlusion",55%
same,inhibition in vivo at 60 mg/kg,"[1]; 6 h, 60 mg/kg single i.v. bolus (Meglumine vehicle), 6 hr after MCA occlusion",15%
same,inhibition in vivo at 60 mg/kg,"[1]; 8 h, 60 mg/kg single i.v. bolus (Meglumine vehicle), 8 hr after MCA occlusion",8%
same,inhibition in vivo at up to 20 mg/kg,[1],68%
same,fold induction at 20 mg/kg,VEGF,2.21
same,VEGF,VEGF,64 pg/mL
same,Fold Increase Over Control,erythropoietin (EPO),3.0
same,EPO,erythropoietin (EPO),369.4 mIU/ml
